# How the values were obtained:
# rice = assay: Test Example 2: soil surface treatment, upland pot test; assay type: in vivo, Oryza sativa L.; details: active ingredient 500 g/ha
# Excerpt: (§1) Upland field soil was put into a 1/170,000 ha pot, and seed of various plants (barnyardgrass, crabgrass, green foxtail, redroot pigweed, prickly sida, velvetleaf, rice, wheat, corn, soybean) were sown. On the 1st day after the sowing, a wettable powder or emulsifiable concentrate having the compound of the present invention formulated in accordance with a usual formulation method, was weighed so that the active ingredient would be a predetermined amount, and diluted with water in an amount of 1,500 L/ha. The herbicide thus adjusted was applied by a small size sprayer for soil surface treatment. On the 20th to 28th days after the application of the herbicide, the growth of the respective plants was visually observed, and the herbicidal effects were evaluated by the growth controlling degrees (%) ranging from 0 (equivalent to the non-treated plot) to 100 (complete kill), whereby the results shown in Table 4, were obtained.
# japanese bulrush = assay: Test Example 3: paddy pot test, application under submerged conditions; assay type: in vivo, Scirpus juncoides; details: submerged application at 0.5 leaf stage, visually observed 14 days after application, 0 = non-treated, 100 = complete kill
# Outline: (§2)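 Paddy soil pots; seeds sown, lightly covered; flooded 0.5–1 cm in greenhouse; wapato tubers planted day 1–2; flood raised to 3–4 cm. Submerged pipette application at 0.5 leaf / primary leaf stage. Visual score day 14, 0–100%.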
# barnyardgrass [1] = assay: as above; assay type: in vivo, Echinochloa crus-galli L.; details: submerged application at 0.5 leaf stage, visually observed 14 days after application, 0 = non-treated, 100 = complete kill
# Outline: as §2
# green foxtail = assay: Test Example 2: soil surface treatment, upland pot test; assay type: in vivo, Setaria viridis L.; details: active ingredient 500 g/ha
# Excerpt: as §1
# barnyardgrass [2] = assay: as above; assay type: in vivo, Echinochloa crus-galli L.; details: active ingredient 500 g/ha
# Excerpt: as §1
# prickly sida = assay: as above; assay type: in vivo, Sida spinosa L.; details: active ingredient 500 g/ha
# Excerpt: as §1
# japanese ribbon wapato = assay: Test Example 3: paddy pot test, application under submerged conditions; assay type: in vivo, Sagittaria pygniaea; details: submerged application at primary leaf stage, visually observed 14 days after application, 0 = non-treated, 100 = complete kill
# Outline: as §2
# rice (var. Nihonbare) = assay: Test Example 3: paddy pot test, transplanted rice; assay type: in vivo, Oryza sativa L.; details: applied 4th day after transplantation, visually observed 21st day after application, 0 = non-treated, 100 = complete kill
# Outline: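 Visual crop-injury rating (0 = as untreated, 100 = complete kill, %) taken 21 days post-application. Treatment: formulated compound, water-diluted, pipetted into 3–4 cm flood water at a preset active-ingredient dose, 4 days after transplanting 2-leaf Nihonbare rice 3 cm deep in puddled paddy soil.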
# crabgrass = assay: Test Example 2: soil surface treatment, upland pot test; assay type: in vivo, Digitaria sanguinalis L.; details: active ingredient 500 g/ha
# Excerpt: as §1
# velvetleaf = assay: as above; assay type: in vivo, Abutilon theophrasti MEDIC.; details: active ingredient 500 g/ha
# Excerpt: as §1
# corn = assay: as above; assay type: in vivo, Zea mays L.; details: active ingredient 500 g/ha
# Excerpt: as §1
# soybean = assay: as above; assay type: in vivo, Glycine max Merr.; details: active ingredient 500 g/ha
# Excerpt: as §1
# redroot pigweed = assay: as above; assay type: in vivo, Amaranthus retroflexus L.; details: active ingredient 500 g/ha
# Excerpt: as §1
# [3] = observed day 21, 0 = non-treated, 100 = complete kill
Compound,Growth controlling degree (%) Rice (rice; observed 20th to 28th day) [%],Growth controlling degree (%) Japanese bulrush (japanese bulrush; active ingredient 250 g/ha) [%],Growth controlling degree (%) Barnyardgrass (barnyardgrass [1]; active ingredient 250 g/ha) [%],Growth controlling degree (%) Green foxtail (green foxtail; observed 20th to 28th day) [%],Growth controlling degree (%) Barnyardgrass (barnyardgrass [2]; observed 20th to 28th day) [%],Growth controlling degree (%) Prickly sida (prickly sida; observed 20th to 28th day) [%],Growth controlling degree (%) Japanese ribbon wapato (japanese ribbon wapato; active ingredient 250 g/ha) [%],Growth controlling degree (%) Rice (rice (var. Nihonbare); active ingredient 250 g/ha) [%],Growth controlling degree (%) Crabgrass (crabgrass; observed 20th to 28th day) [%],Growth controlling degree (%) Velvetleaf (velvetleaf; observed 20th to 28th day) [%],Growth controlling degree (%) Corn (corn; observed 20th to 28th day) [%],Growth controlling degree (%) Soyabean (soybean; observed 20th to 28th day) [%],Growth controlling degree (%) Redroot pigweed (redroot pigweed; observed 20th to 28th day) [%],further results
CC(C)C(c1cnccc1C(F)(F)F)N(C)C(=O)Cc1ccsc1 (centres unmarked) [I-170],30,100,100,100,100,95,70,0,98,30,50,35,30,–
CCN(C(=O)Cc1ccccc1)C(c1cnccc1Cl)C(C)C (centres unmarked) [Compound I-102],10,100,98,100,100,60,60,10,98,0,35,20,20,–
CCc1ccc(OCC(=O)N(C)C(c2cnccc2C(F)(F)F)C(C)C)cc1 (centres unmarked) [I-249],–,98,98,–,–,–,0,0,–,–,–,–,–,Growth controlling degree (%) Rice (rice; [3]): 20%; Growth controlling degree (%) Green foxtail (green foxtail; [3]): 98%; Growth controlling degree (%) Barnyardgrass (barnyardgrass [2]; [3]): 95%; Growth controlling degree (%) Prickly sida (prickly sida; [3]): 80%; Growth controlling degree (%) Crabgrass (crabgrass; [3]): 98%; Growth controlling degree (%) Velvetleaf (velvetleaf; [3]): 50%; Growth controlling degree (%) Corn (corn; [3]): 20%; Growth controlling degree (%) Soyabean (soybean; [3]): 20%; Growth controlling degree (%) Redroot pigweed (redroot pigweed; [3]): 60%
CC(C)C(c1cnccc1Cl)N(C)C(=O)Cc1ccccc1Cl (centres unmarked) [Compound I-81],0,95,98,70,98,10,0,10,90,0,0,0,70,–
CC(C)C(c1cnccc1C(F)(F)F)N(C)C(=O)COc1ccc(F)cc1F (centres unmarked) [Compound I-246],–,98,100,–,–,–,70,10,–,–,–,–,–,Growth controlling degree (%) Rice (rice; [3]): 20%; Growth controlling degree (%) Green foxtail (green foxtail; [3]): 98%; Growth controlling degree (%) Barnyardgrass (barnyardgrass [2]; [3]): 98%; Growth controlling degree (%) Prickly sida (prickly sida; [3]): 80%; Growth controlling degree (%) Crabgrass (crabgrass; [3]): 95%; Growth controlling degree (%) Velvetleaf (velvetleaf; [3]): 30%; Growth controlling degree (%) Corn (corn; [3]): 40%; Growth controlling degree (%) Soyabean (soybean; [3]): 40%; Growth controlling degree (%) Redroot pigweed (redroot pigweed; [3]): 50%
CC(C)C(c1cnccc1C(F)(F)F)N(C)C(=O)CC1C=CCC1 (centres unmarked) [I-183],60,–,–,100,100,30,–,–,100,50,10,10,95,Growth controlling degree (%) Japanese bulrush (japanese bulrush; active ingredient 500 g/ha): 100%; Growth controlling degree (%) Barnyardgrass (barnyardgrass [1]; active ingredient 500 g/ha): 100%; Growth controlling degree (%) Japanese ribbon wapato (japanese ribbon wapato; active ingredient 500 g/ha): 70%; Growth controlling degree (%) Rice (rice (var. Nihonbare); active ingredient 500 g/ha): 10%
CC=CC(=O)N(C)C(c1cnccc1C(F)(F)F)C(C)C (centres unmarked) [I-180],50,–,–,100,100,80,–,–,100,50,10,10,80,Growth controlling degree (%) Japanese bulrush (japanese bulrush; active ingredient 500 g/ha): 100%; Growth controlling degree (%) Barnyardgrass (barnyardgrass [1]; active ingredient 500 g/ha): 98%; Growth controlling degree (%) Japanese ribbon wapato (japanese ribbon wapato; active ingredient 500 g/ha): 60%; Growth controlling degree (%) Rice (rice (var. Nihonbare); active ingredient 500 g/ha): 30%
Cc1cccc(CC(=O)N(C)C(c2cnccc2C(F)(F)F)C(C)C)c1 (centres unmarked) [I-87],0,90,100,95,100,100,70,0,98,70,40,0,85,–
CCN(C(=O)COc1ccccc1)C(c1cnccc1C(F)(F)F)C(C)C (centres unmarked) [I-259],–,70,98,–,–,–,90,40,–,–,–,–,–,Growth controlling degree (%) Rice (rice; [3]): 10%; Growth controlling degree (%) Green foxtail (green foxtail; [3]): 98%; Growth controlling degree (%) Barnyardgrass (barnyardgrass [2]; [3]): 70%; Growth controlling degree (%) Prickly sida (prickly sida; [3]): 40%; Growth controlling degree (%) Crabgrass (crabgrass; [3]): 75%; Growth controlling degree (%) Velvetleaf (velvetleaf; [3]): 10%; Growth controlling degree (%) Corn (corn; [3]): 30%; Growth controlling degree (%) Soyabean (soybean; [3]): 0%; Growth controlling degree (%) Redroot pigweed (redroot pigweed; [3]): 50%
CC(C)C(c1cnccc1C(F)(F)F)N(C)C(=O)COc1ccccc1F (centres unmarked) [Compound I-243],10,98,100,100,90,90,70,0,100,30,40,10,80,–
CC(C)C(c1cnccc1C(F)(F)F)N(C)C(=O)COc1cccc(F)c1 (centres unmarked) [Compound I-242],10,95,100,100,98,98,70,0,98,70,40,10,90,–
